SMILES strings stand for the structures. pIC50: −log10 of the molar value.

T1 sequence (P04629 441-796): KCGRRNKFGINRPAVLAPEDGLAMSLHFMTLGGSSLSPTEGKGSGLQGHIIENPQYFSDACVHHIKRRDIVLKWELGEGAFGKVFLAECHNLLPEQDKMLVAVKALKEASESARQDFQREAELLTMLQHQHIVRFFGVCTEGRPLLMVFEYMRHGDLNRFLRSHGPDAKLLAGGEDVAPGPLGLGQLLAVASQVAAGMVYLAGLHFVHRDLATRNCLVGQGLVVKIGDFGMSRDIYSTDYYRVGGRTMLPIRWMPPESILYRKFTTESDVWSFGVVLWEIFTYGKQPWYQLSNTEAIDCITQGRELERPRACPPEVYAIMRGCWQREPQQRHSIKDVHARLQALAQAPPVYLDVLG

This assay has as its target T1, recombinant His-tagged cytoplasmic domains of TRKA receptor (NTRK1, PV3144, aa 441-796) (Homo sapiens, UniProt P04629).
T1 construct: aa 441-796; His; purchased Invitrogen PV3144
The experiment in a line: Isolated TRK enzyme assay (HTRF KinEASE-TK, PV3144 TrkA enzyme assay). It counts as biochemical. As to conditions: 4 nM enzyme, 40 uM ATP, 35 min, arithmetic mean where more than one reading. The method, then: Isolated TRK Enzyme assays use the HTRF KinEASE-TK kit (Cisbio Cat #62TK0PEJ) with recombinant His-tagged cytoplasmic domains of TRKA receptor sourced from Invitrogen (see table below). This activity-assay measures the phosphorylation of tyrosine residues within a substrate from the HTRF kit which has been validated by Cisbio for a variety of tyrosine kinases including the TRK receptors.
0.5 mM stock solutions of test compounds are prepared and serially diluted in 100% DMSO. […] Greiner low volume black plates containing 0.2 ul of serially diluted compound, standard and HPE/ZPE are created using the Bravo nanolitre dispenser.
1× enzyme buffer is prepared from 5× Enzymatic Buffer from the Cisbio KinEASE TK kit using MilliQ water. The buffer is then supplemented with 10 mM MgCl and 2 mM DTT (both from Sigma).
Following this preactivation step, 5 ul/well of enzyme+ATP mix is added using a Multidrop Micro to the assay plate, spotted with 0.2 ul 100% DMSO compound. This is left for 20 mins at room temperature before adding 5 ul of 2 uM TK-substrate-Biotin (from the Cisbio kit) diluted in 1× enzyme buffer (1 uM FAC) using the Multidrop Micro. The reaction is incubated at room temperature for the optimized assay reaction time (see table).
After the Detection Reagent addition, plates are covered and incubated at room temperature for 60 minutes. […] Test compound data are expressed as percentage inhibition defined by HPE and ZPE values for each plate. Percentage inhibition in the presence of test compound is plotted against compound concentration on a log scale to determine an IC50 from the resultant sigmoid curve.
Where more than one reading was taken, the arithmetic mean is presented.
On to `NC(=O)c1cc(-c2cnn(C3CCS(=O)(=O)C3)c2)ccc1OC1CCN(C(=O)Cc2ccc(OC(F)(F)F)cc2)CC1` (racemic) [Example 14, Racemic 5-[1-(1,1-dioxidotetrahydrothiophen-3-yl)-1H-pyrazol-4-yl]-2-[(1-{[4-(trifluoromethoxy)phenyl]acetyl}piperidin-4-yl)oxy]benzamide], for which the pIC50 was 8.62. In the case of `NC(=O)c1cc(-c2cnn(C3CS(=O)(=O)C3)c2)cnc1O[C@H]1CCN(C(=O)Cc2ccc(OC(F)(F)F)cc2)C[C@H]1F` (racemic) [Example 38, 1:1 Cis-racemic 5-[1-(1,1-dioxidothietan-3-yl)-1H-pyrazol-4-yl]-2-{[3-fluoro-1-{[4-(trifluoromethoxy)phenyl]acetyl}piperidin-4-yl]oxy}pyridine-3-carboxamide], the pIC50 is 8.70. To `NC(=O)c1cc(-c2cnn(C3CS(=O)(=O)C3)c2)cnc1O[C@H]1CCN(C(=O)Cc2ccc(OC3CC3)cn2)C[C@H]1F` (racemic) [Example 39, 1:1 Cis-racemic 2-{[1-{[5-(cyclopropyloxy)pyridin-2-yl]acetyl}-3-fluoropiperidin-4-yl]oxy}-5-[1-(1,1-dioxidothietan-3-yl)-1H-pyrazol-4-yl]pyridine-3-carboxamide] belongs 8.15; to `Cn1cnc(-c2ccc(O[C@H]3CCN(C(=O)Cc4ccc(OC5CC5)cc4)C[C@H]3F)c(C(N)=O)c2)c1` (racemic) [Example 40, 1:1 Cis-racemic 2-{[1-{[4-(cyclopropyloxy)phenyl]acetyl}-3-fluoropiperidin-4-yl]oxy}-5-(1-methyl-1H-imidazol-4-yl)benzamide], 9.00; to `CC(C)(O)Cn1cc(-c2ccc(O[C@@H]3CCN(C(=O)Cc4ccc(OC5CC5)cn4)C[C@H]3F)c(C(N)=O)c2)cn1` (racemic) [Example 43], 8.16. To `Cn1cnc(-c2ccc(O[C@@H]3CCN(C(=O)Cc4ccc(OC5CC5)cc4)C[C@H]3F)c(C(N)=O)c2)c1` (racemic) [Example 44] belongs 8.42. To `CC(C)(O)Cn1cc(-c2ccc(O[C@H]3CCN(C(=O)Cc4ccc(OC5CC5)cn4)C[C@H]3F)c(C(N)=O)c2)cn1` (racemic) [Example 45] belongs 8.74. As for `Cn1cnc(-c2ccc(OC3CCN(C(=O)Cc4ccc(OC(F)(F)F)cc4)CC3(C)C)c(C(N)=O)c2)c1` (racemic) [Example 49, Racemic 2-((3,3-dimethyl-1-(2-(4-(trifluoromethoxy)phenyl)acetyl)piperidin-4-yl)oxy)-5-(1-methyl-1H-imidazol-4-yl)benzamide], the pIC50 is 8.43.

With `CC1CN(C(=O)Cc2ccc(OC(F)(F)F)cc2)CCC1Oc1ccc(-c2cn(C)cn2)cc1C(N)=O` (racemic) [Example 50, Racemic 2-((3-methyl-1-(2-(4-(trifluoromethoxy)phenyl)acetyl)piperidin-4-yl)oxy)-5-(1-methyl-1H-imidazol-4-yl)benzamide], the pIC50 is 8.44. To `CC1CC(Oc2ccc(-c3cn(C)cn3)cc2C(N)=O)CCN1C(=O)Cc1ccc(OC(F)(F)F)cc1` (racemic) [Example 51, Racemic 2-((2-methyl-1-(2-(4-(trifluoromethoxy)phenyl)acetyl)piperidin-4-yl)oxy)-5-(1-methyl-1H-imidazol-4-yl)benzamide] belongs 8.21; to `Cn1cnc(-c2ccc(O[C@@H]3CCN(C(=O)Cc4ccc(OC(F)(F)F)cc4)C[C@@H]3F)c(C(N)=O)c2)c1` (racemic) [Example 52, 1:1 racemic mixture of 2-(((3S,4R)-3-fluoro-1-(2-(4-(trifluoromethoxy)phenyl)acetyl)piperidin-4-yl)oxy)-5-(1-methyl-1H-imidazol-4-yl)benzamide + (3R,4S) enantiomer], 8.35.

With `CC(N)c1ccc(-c2cnc(OC3CCN(C(=O)Cc4ccc(OC(F)(F)F)cc4)CC3)c(C(N)=O)c2)cc1` (racemic) [Example 94, Racemic 5-[4-(1-aminoethyl)phenyl]-2-[(1-{[4-(trifluoromethoxy)phenyl]acetyl}piperidin-4-yl)oxy]pyridine-3-carboxamide], the pIC50 is 8.06.

For `CC(N)c1ccc(-c2ccc(OC3CCN(C(=O)Cc4ccc(OC(F)(F)F)cc4)CC3)c(C(N)=O)c2)cc1` (racemic) [Example 103, Racemic 4′-(1-aminoethyl)-4-[(1-{[4-(trifluoromethoxy)phenyl]acetyl}piperidin-4-yl)oxy]biphenyl-3-carboxamide], the pIC50 was 8.57. To `Cn1cnc(-c2ccc(O[C@H]3CCN(C(=O)Cc4ccc(OC(F)(F)F)cc4)C[C@@H]3F)c(C(N)=O)c2)c1` (single isomer, unassigned) [Example 8] belongs 8.82; to `Cn1cnc(-c2ccc(O[C@@H]3CCN(C(=O)Cc4ccc(OC(F)(F)F)cc4)C[C@H]3F)c(C(N)=O)c2)c1` (single isomer, unassigned) [Example 112], 8.19.

Consider `CC(N)c1ccc(-c2cnc(OC3CCN(C(=O)Cc4ccc(OC(F)(F)F)cc4)CC3)c(C(N)=O)c2)cc1` (stereo in doubt) [Example 96, 5-{4-[(1S)-1-aminoethyl]phenyl}-2-[(1-{[4-(trifluoromethoxy)phenyl]acetyl}piperidin-4-yl)oxy]pyridine-3-carboxamide], for which the pIC50 is 8.30. To `NC(=O)c1cc(-c2cnn(C3CS(=O)(=O)C3)c2)ccc1O[C@@H]1CCN(C(=O)Cc2ccc(OC(F)(F)F)cc2)C[C@@H]1F` [Example 1, 5-[1-(1,1-dioxidothietan-3-yl)-1H-pyrazol-4-yl]-2-{[(3S,4R)-3-fluoro-1-{[4-(trifluoromethoxy)phenyl]acetyl}piperidin-4-yl]oxy}benzamide] belongs 9.40; to `Cn1cc(-c2cnc(O[C@H]3CCN(C(=O)Cc4ccc(OC(F)(F)F)cc4)C[C@H]3F)c(C(N)=O)c2)cn1` [Example 4, 2-{[(3R,4S)-3-fluoro-1-{[4-(trifluoromethoxy)phenyl]acetyl}piperidin-4-yl]oxy}-5-(1-methyl-1H-pyrazol-4-yl)pyridine-3-carboxamide], 8.92. To `NC(=O)c1cc(-c2cn[nH]c2)ccc1O[C@H]1CCN(C(=O)Cc2ccc(OC(F)(F)F)cc2)C[C@H]1F` [Example 5, 2-{[(3R,4S)-3-fluoro-1-{[4-(trifluoromethoxy)phenyl]acetyl}piperidin-4-yl]oxy}-5-(1H-pyrazol-4-yl)benzamide] belongs 9.05. To `Cn1cnc(-c2ccc(O[C@@H]3CCN(C(=O)Cc4ccc(OC(F)(F)F)cc4)C[C@@H]3F)c(C(N)=O)c2)c1` [Example 6, 2-{[(3S,4R)-3-fluoro-1-(2-(4-(trifluoromethoxy)phenyl)acetyl)piperidin-4-yl]oxy}-5-(1-methyl-1H-imidazol-4-yl)benzamide] belongs 8.82; to `Cn1cnc(-c2cnc(O[C@@H]3CCN(C(=O)Cc4ccc(OC5CC5)cc4)C[C@@H]3F)c(C(N)=O)c2)c1` [Example 7, 2-{[(3S,4R)-1-{[4-(cyclopropyloxy)phenyl]acetyl}-3-fluoropiperidin-4-yl]oxy}-5-(1-methyl-1H-imidazol-4-yl)pyridine-3-carboxamide], 8.85. For `Cn1cc(-c2ccc(OC3CCN(C(=O)Cc4ccc(OC(F)(F)F)cn4)CC3)c(C(N)=O)c2)cn1` [Example 10, 5-(1-methyl-1H-pyrazol-4-yl)-2-[(1-{[5-(trifluoromethoxy)pyridin-2-yl]acetyl}piperidin-4-yl)oxy]benzamide], the pIC50 is 8.00.
